Assay results taken from article PMC2966118 (The Journal of Biological Chemistry, 2010).
pEC50: −log10 of the molar value.

Target: human recombinant TPC2 (hTPC2, HA-HsTPC2) (Homo sapiens, UniProt Q8NHX9)
Experiment: single-channel recording in planar lipid bilayer, open probability
Assay type: biochemical

human recombinant TPC2 (hTPC2, HA-HsTPC2), sequence (Q8NHX9 whole entry): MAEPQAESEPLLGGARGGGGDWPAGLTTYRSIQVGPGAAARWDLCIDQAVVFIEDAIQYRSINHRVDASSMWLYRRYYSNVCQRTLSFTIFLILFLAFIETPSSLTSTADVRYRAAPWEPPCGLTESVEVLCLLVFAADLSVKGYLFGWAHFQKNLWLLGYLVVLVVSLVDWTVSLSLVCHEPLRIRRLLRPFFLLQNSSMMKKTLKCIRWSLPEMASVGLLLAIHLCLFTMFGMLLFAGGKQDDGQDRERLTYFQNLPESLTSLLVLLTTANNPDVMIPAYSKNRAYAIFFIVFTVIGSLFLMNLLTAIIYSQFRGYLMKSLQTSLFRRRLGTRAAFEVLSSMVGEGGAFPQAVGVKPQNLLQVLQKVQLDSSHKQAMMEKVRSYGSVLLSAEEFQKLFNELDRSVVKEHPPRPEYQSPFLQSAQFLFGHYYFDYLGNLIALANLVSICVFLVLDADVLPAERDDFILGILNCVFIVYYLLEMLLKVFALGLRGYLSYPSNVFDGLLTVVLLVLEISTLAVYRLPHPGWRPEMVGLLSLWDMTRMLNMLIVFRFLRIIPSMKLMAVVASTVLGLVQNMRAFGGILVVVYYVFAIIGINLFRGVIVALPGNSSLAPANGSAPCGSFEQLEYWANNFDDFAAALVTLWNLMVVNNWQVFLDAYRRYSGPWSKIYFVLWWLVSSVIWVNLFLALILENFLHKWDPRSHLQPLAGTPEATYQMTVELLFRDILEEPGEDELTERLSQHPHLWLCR

pEC50: 6.30
SMILES: Nc1ncnc2c1ncn2[C@@H]1O[C@H](COP(=O)(O)OP(=O)(O)OC[C@H]2O[C@@H]([n+]3cccc(C(=O)O)c3)[C@H](O)[C@@H]2O)[C@@H](O)[C@H]1OP(=O)(O)O [NAADP]
